From patent publication US20240158446A1, “CYCLIC COMPOUND HAVING SELECTIVE INHIBITORY ACTION ON KRAS OVER HRAS AND NRAS” (CHUGAI SEIYAKU KABUSHIKI KAISHA, priority 2021, published 2024)

How the values were obtained:
[1] = target: GDP-bound NRAS wild-type protein (Homo sapiens, UniProt P01111); assay: Binding to NRAS by surface plasmon resonance (SPR), Single Cycle Kinetics; conditions: for NRAS/KRAS (ratio of KD value for NRAS to KD value for KRAS) / NRAS/KRAS (ratio of KD value with respect to NRAS to KD value with respect to KRAS): SPR, GDP-bound NRAS wild-type protein vs GDP-bound KRAS wild-type protein
Sequence of GDP-bound NRAS wild-type protein (P01111 whole entry): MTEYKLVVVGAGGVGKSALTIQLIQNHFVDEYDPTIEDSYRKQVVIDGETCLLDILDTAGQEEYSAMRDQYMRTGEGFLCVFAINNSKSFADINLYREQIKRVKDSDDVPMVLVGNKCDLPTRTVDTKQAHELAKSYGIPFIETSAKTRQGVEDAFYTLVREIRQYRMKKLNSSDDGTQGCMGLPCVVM

[2] = target: GDP-bound HRAS wild-type protein (Homo sapiens, UniProt P01112); assay: Binding to HRAS by surface plasmon resonance (SPR), Single Cycle Kinetics; conditions: for HRAS/KRAS (ratio of KD value for HRAS to KD value for KRAS) / HRAS/KRAS (ratio of KD value with respect to HRAS to KD value with respect to KRAS): SPR, GDP-bound HRAS wild-type protein vs GDP-bound KRAS wild-type protein
Sequence of GDP-bound HRAS wild-type protein (P01112 whole entry): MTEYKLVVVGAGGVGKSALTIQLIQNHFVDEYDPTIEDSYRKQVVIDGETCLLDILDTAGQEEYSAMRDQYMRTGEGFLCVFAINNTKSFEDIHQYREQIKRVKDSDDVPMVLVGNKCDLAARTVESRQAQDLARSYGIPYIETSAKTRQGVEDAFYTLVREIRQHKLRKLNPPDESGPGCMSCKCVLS

For `CCC(CC)[C@H]1C(=O)N(C)[C@H](C(=O)N(C)C)CC(=O)N(C)[C@@H](COC)C(=O)N[C@@H]([C@@H](C)CC)C(=O)N(C)CC(=O)N(C)[C@H]2C/C=C\CCN(C2=O)[C@@H](Cc2ccc(C)cc2)C(=O)N(C)CC(=O)N[C@@H](CCc2ccc(C(F)(F)F)c(Cl)c2)C(=O)N2CCCC[C@H]2C(=O)NC2(CC(C)(C)C2)C(=O)N1C` [PP2931], the “NRAS/KRAS (ratio of KD value with respect to GDP-bound NRAS wild-type protein to KD value with respect to KRAS)” value ([1]; SPR KD ratio NRAS/KRAS, class symbols) was “A (a compound having 10 or more and less than 20 is denoted as A)” and the “HRAS/KRAS (ratio of KD value with respect to GDP-bound HRAS wild-type protein to KD value with respect to KRAS)” value ([2]; SPR KD ratio HRAS/KRAS, class symbols) was “A (a compound having 10 or more and less than 20 is denoted as A)”.
In the case of `CCO[C@@H]1C[C@H]2C(=O)NC3(CC(C)(C)C3)C(=O)N(C)[C@@H](C3CCCC3)C(=O)N(C)[C@H](C(=O)N(C)C)CC(=O)N(C)[C@H]3CCCCC/C=C/c4ccc(cc4)C[C@@H](C(=O)N(C)CC(=O)N[C@@H](CCc4ccc(Cl)c(Cl)c4)C(=O)N2C1)N1CC/C=C\C[C@@H](C1=O)N(C)C(=O)CN(C)C(=O)[C@H]([C@@H](C)CC)NC3=O` [PP3057], the “NRAS/KRAS (ratio of KD value for NRAS to KD value for KRAS)” value [1] is reported as “A (a compound having 10 or more and less than 20 is denoted as A)” and the “HRAS/KRAS (ratio of KD value for HRAS to KD value for KRAS)” value [2] is reported as “B (a compound having 3 or more and less than 10 is denoted as B)”.
With `CCCN1C(=O)[C@@H]2CCN2C(=O)[C@H](C)N(C)C(=O)[C@H]([C@@H](C)CC)NC(=O)[C@H](CC(C)C)N(C)C(=O)C[C@@H](C(=O)N2CCOCC2)N(C)C(=O)[C@H](C2CCCC2)N(C)C(=O)C2(CCCC2)NC(=O)[C@@H]2C[C@H](O)CN2C(=O)[C@H](CCc2ccc(C(F)(F)F)c(Cl)c2)NC(=O)CN(C)C(=O)[C@@H]1Cc1ccc(C(F)(F)F)cc1` (stereo in doubt) [PP0238] the “NRAS/KRAS (ratio of KD value for NRAS to KD value for KRAS)” value [1] was “C (A compound having a KD ratio of 0.1 or more and less than 3 is denoted as C)” and the “HRAS/KRAS (ratio of KD value for HRAS to KD value for KRAS)” value [2] was “C (A compound having a KD ratio of 0.1 or more and less than 3 is denoted as C)”.
For `CCO[C@@H]1C[C@H]2C(=O)NC3(CCC3)C(=O)N(C)[C@@H](C(CC)CC)C(=O)N(C)[C@H](C(=O)N3CCOCC3)CC(=O)N(C)[C@@H](CC(C)C)C(=O)N[C@@H]([C@@H](C)CC)C(=O)N(C)CC(=O)N(C)[C@H]3CCCCCN(C3=O)[C@@H](Cc3ccc(C(F)(F)F)cc3)C(=O)N(C)CC(=O)N[C@@H](CCc3cc(F)c(C(F)(F)F)c(F)c3)C(=O)N2C1` [PP0820], the “NRAS/KRAS (ratio of KD value for NRAS to KD value for KRAS)” value [1] was “A (a compound having 10 or more and less than 20 is denoted as A)” and the “HRAS/KRAS (ratio of KD value for HRAS to KD value for KRAS)” value [2] was “B (a compound having 3 or more and less than 10 is denoted as B)”.
For `CC[C@H](C)[C@@H]1NC(=O)[C@H](CC(C)C)N(C)C(=O)C[C@@H](C(=O)N2CCOCC2)N(C)C(=O)[C@H](C2CCCC2)N(C)C(=O)[C@](C)(CC)NC(=O)[C@@H]2CCCN2C(=O)[C@H](CCc2cc(F)c(C(F)(F)F)c(F)c2)NC(=O)CN(C)C(=O)[C@H](Cc2ccc(C(F)(F)F)cc2)N2CCCCC[C@@H](C2=O)N(C)C(=O)CN(C)C1=O` [PP0500], the “NRAS/KRAS (ratio of KD value with respect to NRAS to KD value with respect to KRAS)” value [1] was “B (a compound having 3 or more and less than 10 is denoted as B)” and the “HRAS/KRAS (ratio of KD value with respect to HRAS to KD value with respect to KRAS)” value [2] was “B (a compound having 3 or more and less than 10 is denoted as B)”.
`CCO[C@@H]1C[C@H]2C(=O)NC3(CCC3)C(=O)N(C)[C@@H](C(CC)CC)C(=O)N(C)[C@H](C)CC(=O)N(C)[C@@H](CC3CC3)C(=O)N[C@@H]([C@@H](C)CC)C(=O)N(C)CC(=O)N(C)[C@H]3C/C=C\CCN(C3=O)[C@@H](Cc3ccc(F)cc3C)C(=O)N(C)CC(=O)N[C@@H](CCc3cc(F)c(C(F)(F)F)c(F)c3)C(=O)N2C1` [PP1520] was tested, and the “NRAS/KRAS (ratio of KD value for NRAS to KD value for KRAS)” value ([1]; KD ratio class) was “A (a compound having 10 or more and less than 20 is denoted as A)” and the “HRAS/KRAS (ratio of KD value for HRAS to KD value for KRAS)” value ([2]; KD ratio class) was “A (a compound having 10 or more and less than 20 is denoted as A)”.
With `CCO[C@@H]1C[C@H]2C(=O)NC3(CCC3)C(=O)N(C)[C@@H](C3CCCC3)C(=O)N(C)[C@H](C)CC(=O)N(C)[C@@H](CC3CCCC3)C(=O)N[C@@H]([C@@H](C)CC)C(=O)N(C)CC(=O)N(C)[C@H]3C/C=C\CCN(C3=O)[C@@H](Cc3ccc(F)cc3)C(=O)N(C)CC(=O)N[C@@H](CCc3cc(F)c(C(F)(F)F)c(F)c3)C(=O)N2C1` [PP1492] the “NRAS/KRAS (ratio of KD value for NRAS to KD value for KRAS)” value ([1]; KD ratio class) was “B (a compound having 3 or more and less than 10 is denoted as B)” and the “HRAS/KRAS (ratio of KD value for HRAS to KD value for KRAS)” value ([2]; KD ratio class) was “B (a compound having 3 or more and less than 10 is denoted as B)”.
For `CCO[C@@H]1C[C@H]2C(=O)NC3(CCC3)C(=O)N(C)[C@@H](C3CCCC3)C(=O)N(C)[C@H](C(=O)N(C)C)CC(=O)N(C)[C@@H](CC3CCCC3)C(=O)N[C@@H]([C@@H](C)CC)C(=O)N(C)CC(=O)N(C)[C@H]3CCCCN(C3=O)[C@@H](Cc3ccc(C(F)(F)F)cc3)C(=O)N(C)CC(=O)N[C@@H](CCc3cc(F)c(C(F)(F)F)c(F)c3)C(=O)N2C1` [PP0700], the “NRAS/KRAS (ratio of KD value with respect to NRAS to KD value with respect to KRAS)” value [1] was “C (A compound having a KD ratio of 0.1 or more and less than 3 is denoted as C)” and the “HRAS/KRAS (ratio of KD value with respect to HRAS to KD value with respect to KRAS)” value [2] was “B (a compound having 3 or more and less than 10 is denoted as B)”.
